According to patent US6914045B2, “Glycopeptide antibiotics” (Wyeth Holdings Corporation, priority 2001, dated 2005):
≈ marks a conversion by molar mass, not a printed value. Each block holds one compound with its values, some of them ahead of it. Numbered stars: 1 amine (or outer) side, 2 acyl side, 3 side chain; on linkers, the order of the positions; unused ones are H or OH. Square brackets hold non-standard residues; d marks the D form. Peptide text beside a SMILES is read from it. * marks the point of attachment. ξ: configuration not given here. X1 = N=C1NCC(C(O)C(N[*:1])C(=O)[*:2])N1C1OC(CO)C(O)C(O)C1O; ξEnduracididine(βξ-OH,4'ξ) = N=C1NCC(C(O)C(N)C(=O)O)N1; X2 = OCC1OC(OC2C(CO)OC(*)C(O)C2O)C(O)C(O)C1O; Diphenylacetyl = O=C(C(c1ccccc1)c1ccccc1)*; ξPhe(βξ-Me) = CC(c1ccccc1)C(N)C(=O)O

Assays:
Assay in all cases: in vitro antibacterial evaluation, MIC by broth dilution
Type in all cases: cell-based
[1] = system: Streptococcus sp.; settings: broth dilution, 18 hours at 35° C.
How it was run: (§1)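 Broth dilution per NCCLS M7-A2 in Mueller-Hinton II medium, inoculum 5×10^5 CFU/mL, antibiotic range 64-0.06 μg/mL. MIC taken as lowest concentration inhibiting growth; Gram-positive panel includes recent clinical isolates resistant to methicillin, penicillin and/or vancomycin.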

[2] = system: Staphylococcus sp.
How it was run: as §1

[3] = system: Enterococcus sp.; settings: broth dilution, 18 hours at 35° C.
How it was run: as §1

[4] = system: Escherichia coli; settings: 18 hours at 35° C.
How it was run: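 Broth dilution MIC per NCCLS M7-A2 in Mueller-Hinton II medium, inoculum 5×10^5 CFU/mL, antibiotic range 64-0.06 μg/mL. MIC taken as lowest concentration inhibiting growth.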

[5] = broth dilution, 18 hours at 35° C.
[6] = strain ATCC 29213; broth dilution, 18 hours at 35° C.
[7] = strain GC 1131; broth dilution, 18 hours at 35° C.
[8] = strain GC 4541; broth dilution, 18 hours at 35° C.
[9] = strain GC 4542; broth dilution, 18 hours at 35° C.
[10] = strain GC 4544; broth dilution, 18 hours at 35° C.
[11] = strain GC 4545; broth dilution, 18 hours at 35° C.
[12] = Enterococcus faecalis (ATCC 29212)
[13] = Enterococcus faecalis (GC 4552)
[14] = Enterococcus faecalis (GC 4553)
[15] = Enterococcus faecalis (GC 4554)

MIC Streptococcus agalactiae (GC 4564) [1]: >128 µg/mL
MIC Streptococcus pneumoniae (GC 4565) [1]: >128 µg/mL
MIC Streptococcus pyogenes (ID-3187) [1]: >128 µg/mL
MIC Streptococcus agalactiae (GC 4564) ([1]; strain GC 4564): >128 µg/mL
MIC Streptococcus pneumoniae (GC 4565) ([1]; strain GC 4565): >128 µg/mL
MIC Streptococcus pyogenes (ID-3187) ([1]; strain ID-3187): >128 µg/mL
MIC Coagulase Negative Staphylococcus (GC 4547) [2, 5]: >128 µg/mL
MIC Coagulase Negative Staphylococcus (GC 4548) [2, 5]: >128 µg/mL
MIC Coagulase Negative Staphylococcus (GC 4549) [2, 5]: >128 µg/mL
MIC Coagulase Negative Staphylococcus (GC 4551) [2, 5]: >128 µg/mL
MIC Coagulase Negative Staphylococcus (ID-3941) [2, 5]: 128 µg/mL (≈ 85.9 µM)
MIC Staphylococcus aureus-SMITH (GC 4543) [2, 5]: >128 µg/mL
MIC Staphylococcus aureus (ATCC 29213) [2, 6]: >128 µg/mL
MIC Staphylococcus aureus (GC 1131) [2, 7]: >128 µg/mL
MIC Staphylococcus aureus (GC 4541) [2, 8]: >128 µg/mL
MIC Staphylococcus aureus (GC 4542) [2, 9]: >128 µg/mL
MIC Staphylococcus aureus-SMITH (GC 4543) ([2]; strain GC 4543; broth dilution, 18 hours at 35° C.): >128 µg/mL
MIC Staphylococcus aureus (GC 4544) [2, 10]: >128 µg/mL
MIC Staphylococcus aureus (GC 4545) [2, 11]: >128 µg/mL
MIC Coagulase Negative Staphylococcus (GC 4547) ([2]; strain GC 4547; broth dilution, 18 hours at 35° C.): >128 µg/mL
MIC Coagulase Negative Staphylococcus (GC 4548) ([2]; strain GC 4548; broth dilution, 18 hours at 35° C.): >128 µg/mL
MIC Coagulase Negative Staphylococcus (GC 4549) ([2]; strain GC 4549; broth dilution, 18 hours at 35° C.): >128 µg/mL
MIC Coagulase Negative Staphylococcus (GC 4551) ([2]; strain GC 4551; broth dilution, 18 hours at 35° C.): >128 µg/mL
MIC Coagulase Negative Staphylococcus (ID-3941) ([2]; strain ID-3941; broth dilution, 18 hours at 35° C.): 128 µg/mL (≈ 85.9 µM)
MIC Enterococcus avium (GC 4558) ([3]; Enterococcus avium (GC 4558)): >128 µg/mL
MIC Enterococcus faecalis (ATCC 29212) [3, 12]: >128 µg/mL
MIC Enterococcus faecalis (GC 4552) [3, 13]: >128 µg/mL
MIC Enterococcus faecalis (GC 4553) [3, 14]: >128 µg/mL
MIC Enterococcus faecalis (GC 4554) [3, 15]: >128 µg/mL
MIC Enterococcus faecium (GC 2243) ([3]; Enterococcus faecium (GC 2243)): >128 µg/mL
MIC Enterococcus faecium (GC 4556) ([3]; Enterococcus faecium (GC 4556)): >128 µg/mL
MIC Enterococcus faecium (GC 4557) ([3]; Enterococcus faecium (GC 4557)): 128 µg/mL (≈ 85.9 µM)
MIC Enterococcus avium (GC 4558) [3]: >128 µg/mL
MIC Enterococcus faecalis (ATCC 29212) [3]: >128 µg/mL
MIC Enterococcus faecalis (GC 2242) [3]: >128 µg/mL
MIC Enterococcus faecalis (GC 4552) [3]: >128 µg/mL
MIC Enterococcus faecalis (GC 4553) [3]: >128 µg/mL
MIC Enterococcus faecalis (GC 4554) [3]: >128 µg/mL
MIC Enterococcus faecium (GC 2243) [3]: >128 µg/mL
MIC Enterococcus faecium (GC 4556) [3]: >128 µg/mL
MIC Enterococcus faecium (GC 4557) [3]: 128 µg/mL (≈ 85.9 µM)
MIC Enterococcus faecalis (GC 2242) ([3]; strain GC 2242): >128 µg/mL
MIC Escherichia coli (ATCC 25922) [4]: >128 µg/mL
Compound: CC(c1ccccc1)C1NC(=O)CNC(=O)C(CO)NC(=O)C(C(O)C2CNC(=N)N2C2OC(COC(=O)C(c3ccccc3)c3ccccc3)C(O)C(O)C2O)NC(=O)C(C(O)C2CNC(=N)N2)NC(=O)C(Cc2ccc(OC3OC(CO)C(OC4OC(CO)C(O)C(O)C4O)C(O)C3O)cc2)NC1=O (stereo not drawn) [Example 96, Cyclo[glycyl-β-methylphenylalanyl-O-(4-O-hexopyranosylhexoipyranosyl)tyrosyl-3-(2-iminoimidazolidin-4-yl)seryl-3-[3-[6-O-(diphenylacetyl)hexopyranosyl]-2-iminoimidazolidin-4-yl]-serylseryl]]
MIC Staphylococcus haemolyticus (GC 4546) [2, 5]: >128 µg/mL
MIC Staphylococcus haemolyticus (GC 4546) ([2]; strain GC 4546; broth dilution, 18 hours at 35° C.): >128 µg/mL

MIC Streptococcus agalactiae (GC 4564) ([1]; Streptococcus agalactiae (GC 4564)): 32 µg/mL (≈ 21.5 µM)
MIC Streptococcus pneumoniae (GC 4565) ([1]; Streptococcus pneumoniae (GC 4565)): 16 µg/mL (≈ 10.7 µM)
MIC Streptococcus pyogenes (ID-3187) ([1]; Streptococcus pyogenes (ID-3187)): 32 µg/mL (≈ 21.5 µM)
MIC Streptococcus agalactiae (GC 4564) [1]: 32 µg/mL (≈ 21.5 µM)
MIC Streptococcus pneumoniae (GC 4565) [1]: 16 µg/mL (≈ 10.7 µM)
MIC Streptococcus pyogenes (ID-3187) [1]: 32 µg/mL (≈ 21.5 µM)
MIC Coagulase Negative Staphylococcus (GC 4547) [2, 5]: 128 µg/mL (≈ 85.9 µM)
MIC Coagulase Negative Staphylococcus (GC 4548) [2, 5]: >128 µg/mL
MIC Coagulase Negative Staphylococcus (GC 4549) [2, 5]: 64 µg/mL (≈ 43 µM)
MIC Coagulase Negative Staphylococcus (GC 4551) [2, 5]: 128 µg/mL (≈ 85.9 µM)
MIC Coagulase Negative Staphylococcus (ID-3941) [2, 5]: 64 µg/mL (≈ 43 µM)
MIC Staphylococcus aureus-SMITH (GC 4543) [2, 5]: >128 µg/mL
MIC Coagulase Negative Staphylococcus (GC 4547) ([2]; broth dilution, 18 hours at 35° C.; strain GC 4547): 128 µg/mL (≈ 85.9 µM)
MIC Coagulase Negative Staphylococcus (GC 4548) ([2]; broth dilution, 18 hours at 35° C.; strain GC 4548): >128 µg/mL
MIC Coagulase Negative Staphylococcus (GC 4549) ([2]; broth dilution, 18 hours at 35° C.; strain GC 4549): 64 µg/mL (≈ 43 µM)
MIC Coagulase Negative Staphylococcus (GC 4551) ([2]; broth dilution, 18 hours at 35° C.; strain GC 4551): 128 µg/mL (≈ 85.9 µM)
MIC Coagulase Negative Staphylococcus (ID-3941) ([2]; broth dilution, 18 hours at 35° C.; strain ID-3941): 64 µg/mL (≈ 43 µM)
MIC Staphylococcus aureus-SMITH (GC 4543) ([2]; broth dilution, 18 hours at 35° C.; strain SMITH GC 4543): >128 µg/mL
MIC Staphylococcus aureus (ATCC 29213) [2, 6]: >128 µg/mL
MIC Staphylococcus aureus (GC 1131) [2, 7]: >128 µg/mL
MIC Staphylococcus aureus (GC 4541) [2, 8]: 128 µg/mL (≈ 85.9 µM)
MIC Staphylococcus aureus (GC 4542) [2, 9]: >128 µg/mL
MIC Staphylococcus aureus (GC 4544) [2, 10]: >128 µg/mL
MIC Staphylococcus aureus (GC 4545) [2, 11]: >128 µg/mL
MIC Enterococcus avium (GC 4558) ([3]; Enterococcus avium (GC 4558)): >128 µg/mL
MIC Enterococcus faecalis (ATCC 29212) [3, 12]: >128 µg/mL
MIC Enterococcus faecalis (GC 2242) ([3]; Enterococcus faecalis (GC 2242)): >128 µg/mL
MIC Enterococcus faecalis (GC 4552) [3, 13]: >128 µg/mL
MIC Enterococcus faecalis (GC 4553) [3, 14]: >128 µg/mL
MIC Enterococcus faecalis (GC 4554) [3, 15]: >128 µg/mL
MIC Enterococcus faecium (GC 2243) ([3]; Enterococcus faecium (GC 2243)): 128 µg/mL (≈ 85.9 µM)
MIC Enterococcus faecium (GC 4556) ([3]; Enterococcus faecium (GC 4556)): >128 µg/mL
MIC Enterococcus faecium (GC 4557) ([3]; Enterococcus faecium (GC 4557)): 32 µg/mL (≈ 21.5 µM)
MIC Enterococcus avium (GC 4558) [3]: >128 µg/mL
MIC Enterococcus faecalis (ATCC 29212) [3]: >128 µg/mL
MIC Enterococcus faecalis (GC 2242) [3]: >128 µg/mL
MIC Enterococcus faecalis (GC 4552) [3]: >128 µg/mL
MIC Enterococcus faecalis (GC 4553) [3]: >128 µg/mL
MIC Enterococcus faecalis (GC 4554) [3]: >128 µg/mL
MIC Enterococcus faecium (GC 2243) [3]: 128 µg/mL (≈ 85.9 µM)
MIC Enterococcus faecium (GC 4556) [3]: >128 µg/mL
MIC Enterococcus faecium (GC 4557) [3]: 32 µg/mL (≈ 21.5 µM)
MIC Escherichia coli (ATCC 25922) [4]: >128 µg/mL
Compound: CC(c1ccccc1)C1NC(=O)CNC(=O)C(COC(=O)C(c2ccccc2)c2ccccc2)NC(=O)C(C(O)C2CNC(=N)N2C2OC(CO)C(O)C(O)C2O)NC(=O)C(C(O)C2CNC(=N)N2)NC(=O)C(Cc2ccc(OC3OC(CO)C(OC4OC(CO)C(O)C(O)C4O)C(O)C3O)cc2)NC1=O (stereo not drawn) [Example 96a, Cyclo[glycyl-β-methylphenylalanyl-O-(4-O-hexopyranosylhexopyranosyl)tyrosyl-3-(2-iminoimidazolidin-4-yl)seryl-3-(3-hexopyranosyl-2-iminoimidazolidin-4-yl)seryl-O-(diphenylacetyl)-seryl]] (cyclo(G[ξPhe(βξ-Me)]Y(X2)[ξEnduracididine(βξ-OH,4'ξ)][X1]S(Diphenylacetyl)); configuration not given here)
MIC Staphylococcus haemolyticus (GC 4546) [2, 5]: 128 µg/mL (≈ 85.9 µM)
MIC Staphylococcus haemolyticus (GC 4546) ([2]; broth dilution, 18 hours at 35° C.; strain GC 4546): 128 µg/mL (≈ 85.9 µM)
